Source: patent US20230093861A1, “RAPAMYCIN ANALOGS AS MTOR INHIBITORS” (Revolution Medicines, Inc., priority 2017, published 2023)

Columns and labels:
P-4E-BP1 (T37/46) = experiment: Cell based AlphaLISA assay, inhibition of P-4E-BP1 (T37/46) (mTORC1 substrate phosphorylation) in MDA-MB-468 cells; conditions: Homo sapiens, MDA-MB-468, 4 h, AlphaLISA, two to four hours at 37° C., read-out: pIC50 for Inhibition of mTORC1 and mTORC2 Substrate Phosphorylation, P-4E-BP1-(T37/46) (converted)
Outline: (§1)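 After treatment, cells were lysed in the kit's buffer once assay medium was withdrawn. Duplicate Alpha measurements tracked each phospho-epitope, and dose-response data were fitted to IC50 following normalization to control wells.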

P-Akt (S473) = experiment: Cell based AlphaLISA assay, inhibition of P-Akt (S473) (mTORC2 substrate phosphorylation) in MDA-MB-468 cells; conditions: Homo sapiens, MDA-MB-468, 4 h, AlphaLISA, two to four hours at 37° C., read-out: pIC50 for Inhibition of mTORC1 and mTORC2 Substrate Phosphorylation, p-AKT 1/2/3 -(S473) (converted)
Outline: as §1

P-P70S6K (T389) = experiment: Cell based AlphaLISA assay, inhibition of P-P70S6K (T389) (mTORC1 substrate phosphorylation) in MDA-MB-468 cells; conditions: Homo sapiens, 4 h, AlphaLISA, two to four hours at 37° C., read-out: pIC50 for Inhibition of mTORC1 and mTORC2 Substrate Phosphorylation, P-P70S6K-(T389) (converted)
Outline: as §1

| Structure (SMILES) | IC50 (P-4E-BP1 (T37/46)) [nM] | IC50 (P-Akt (S473)) [nM] | IC50 (P-P70S6K (T389)) [nM] |
| --- | --- | --- | --- |
| CCO[C@@H]1C[C@@H]([C@H](C)C[C@@H]2CC[C@H](n3cc(COC(=O)NCCOCCOCCOCCC(=O)NCCOCCOCCOCCC(=O)NCCCCn4nc(-c5ccc6oc(N)nc6c5)c5c(N)ncnc54)nn3)[C@H](OC)C2)OC(=O)[C@@H]2CCCCN2C(=O)C(=O)[C@]2(O)O[C@@H](CC[C@H]2C)C[C@H](OC)/C(C)=C/C=C/C=C/[C@@H](C)C[C@@H](C)C(=O)[C@H](OC)[C@H](O)/C(C)=C/[C@H]1C [Example 149] | 31.6 to 1000 | 31.6 to 1000 | 1 to 10 |
| CCO[C@@H]1C[C@@H]([C@H](C)C[C@@H]2CC[C@H](n3cc(COC(=O)NCCOCCOCCOCCC(=O)NCCOCCOCCOCCC(=O)NCCCCn4nc(-c5cc6cc(O)ccc6[nH]5)c5c(N)ncnc54)nn3)[C@H](OC)C2)OC(=O)[C@@H]2CCCCN2C(=O)C(=O)[C@]2(O)O[C@@H](CC[C@H]2C)C[C@H](OC)/C(C)=C/C=C/C=C/[C@@H](C)C[C@@H](C)C(=O)[C@H](OC)[C@H](O)/C(C)=C/[C@H]1C [Example 150] | 31.6 to 1000 | > 1000 | 10 to 1000 |
| CO/N=C1/C[C@@H]([C@H](C)C[C@@H]2CC[C@H](n3cc(COC(=O)NCCOCCOCCOCCC(=O)NCCOCCOCCC(=O)NCCCCn4nc(-c5ccc6oc(N)nc6c5)c5c(N)ncnc54)nn3)[C@H](OC)C2)OC(=O)[C@@H]2CCCCN2C(=O)C(=O)[C@]2(O)O[C@@H](CC[C@H]2C)C[C@H](OC)/C(C)=C/C=C/C=C/[C@@H](C)C[C@@H](C)C(=O)[C@H](OC)[C@H](O)/C(C)=C/[C@H]1C [Example 151] | 31.6 to 1000 | > 1000 | 10 to 1000 |
| CO/N=C1/C[C@@H]([C@H](C)C[C@@H]2CC[C@H](n3cc(COC(=O)NCCOCCOCCOCCC(=O)NCCOCCOCCC(=O)NCCCCn4nc(-c5cc6cc(O)ccc6[nH]5)c5c(N)ncnc54)nn3)[C@H](OC)C2)OC(=O)[C@@H]2CCCCN2C(=O)C(=O)[C@]2(O)O[C@@H](CC[C@H]2C)C[C@H](OC)/C(C)=C/C=C/C=C/[C@@H](C)C[C@@H](C)C(=O)[C@H](OC)[C@H](O)/C(C)=C/[C@H]1C [Example 152] | > 1000 | > 1000 | 10 to 1000 |
| CO/N=C1/C[C@@H]([C@H](C)C[C@@H]2CC[C@H](n3cc(COC(=O)NCCOCCOCCOCCC(=O)NCCOCCOCCOCCC(=O)NCCCCn4nc(-c5ccc6oc(N)nc6c5)c5c(N)ncnc54)nn3)[C@H](OC)C2)OC(=O)[C@@H]2CCCCN2C(=O)C(=O)[C@]2(O)O[C@@H](CC[C@H]2C)C[C@H](OC)/C(C)=C/C=C/C=C/[C@@H](C)C[C@@H](C)C(=O)[C@H](OC)[C@H](O)/C(C)=C/[C@H]1C [Example 153] | 31.6 to 1000 | > 1000 | 1 to 10 |
| CO[C@H]1C[C@@H]2CC[C@@H](C)[C@@](O)(O2)C(=O)C(=O)N2CCCC[C@H]2C(=O)O[C@H]([C@H](C)C[C@@H]2CC[C@H](n3cc(COC(=O)NCCOCCOCCOCCC(=O)NCCOCCOCCC(=O)NCCCCn4nc(-c5ccc6oc(N)nc6c5)c5c(N)ncnc54)nn3)[C@H](OC)C2)C/C(=N/OCc2ccccc2)[C@H](C)/C=C(\C)[C@@H](O)[C@@H](OC)C(=O)[C@H](C)C[C@H](C)/C=C/C=C/C=C/1C [Example 154] | > 1000 | > 1000 | > 1000 |
| CO[C@H]1C[C@@H]2CC[C@@H](C)[C@@](O)(O2)C(=O)C(=O)N2CCCC[C@H]2C(=O)O[C@H]([C@H](C)C[C@@H]2CC[C@H](n3cc(COC(=O)NCCOCCOCCOCCC(=O)NCCOCCOCCC(=O)NCCCCn4nc(-c5cc6cc(O)ccc6[nH]5)c5c(N)ncnc54)nn3)[C@H](OC)C2)C/C(=N/OCc2ccccc2)[C@H](C)/C=C(\C)[C@@H](O)[C@@H](OC)C(=O)[C@H](C)C[C@H](C)/C=C/C=C/C=C/1C [Example 155] | > 1000 | > 1000 | > 1000 |
| CO[C@H]1C[C@@H]2CC[C@@H](C)[C@@](O)(O2)C(=O)C(=O)N2CCCC[C@H]2C(=O)O[C@H]([C@H](C)C[C@@H]2CC[C@H](n3cc(COC(=O)NCCOCCOCCOCCC(=O)NCCOCCOCCOCCC(=O)NCCCCn4nc(-c5ccc6oc(N)nc6c5)c5c(N)ncnc54)nn3)[C@H](OC)C2)C/C(=N/OCc2ccccc2)[C@H](C)/C=C(\C)[C@@H](O)[C@@H](OC)C(=O)[C@H](C)C[C@H](C)/C=C/C=C/C=C/1C [Example 156] | > 1000 | > 1000 | > 1000 |
| CO[C@H]1C[C@@H]2CC[C@@H](C)[C@@](O)(O2)C(=O)C(=O)N2CCCC[C@H]2C(=O)O[C@H]([C@H](C)C[C@@H]2CC[C@H](n3cc(COC(=O)NCCOCCOCCOCCC(=O)NCCOCCOCCOCCC(=O)NCCCCn4nc(-c5cc6cc(O)ccc6[nH]5)c5c(N)ncnc54)nn3)[C@H](OC)C2)C/C(=N/OCc2ccccc2)[C@H](C)/C=C(\C)[C@@H](O)[C@@H](OC)C(=O)[C@H](C)C[C@H](C)/C=C/C=C/C=C/1C [Example 157] | > 1000 | > 1000 | > 1000 |
| CO[C@H]1C[C@@H]2CC[C@@H](C)[C@@](O)(O2)C(=O)C(=O)N2CCCC[C@H]2C(=O)O[C@H]([C@H](C)C[C@@H]2CC[C@H](n3cc(COC(=O)NCCOCCOCCOCCC(=O)NCCOCCOCCC(=O)NCCCCn4nc(-c5ccc6oc(N)nc6c5)c5c(N)ncnc54)nn3)[C@H](OC)C2)C/C(=N/OC(C)(C)C)[C@H](C)/C=C(\C)[C@@H](O)[C@@H](OC)C(=O)[C@H](C)C[C@H](C)/C=C/C=C/C=C/1C [Example 158] | > 1000 | > 1000 | > 1000 |
| CO[C@H]1C[C@@H]2CC[C@@H](C)[C@@](O)(O2)C(=O)C(=O)N2CCCC[C@H]2C(=O)O[C@H]([C@H](C)C[C@@H]2CC[C@H](n3cc(COC(=O)NCCOCCOCCOCCC(=O)NCCOCCOCCC(=O)NCCCCn4nc(-c5cc6cc(O)ccc6[nH]5)c5c(N)ncnc54)nn3)[C@H](OC)C2)C/C(=N/OC(C)(C)C)[C@H](C)/C=C(\C)[C@@H](O)[C@@H](OC)C(=O)[C@H](C)C[C@H](C)/C=C/C=C/C=C/1C [Example 159] | > 1000 | > 1000 | < 1 |
| CO[C@H]1C[C@@H]2CC[C@@H](C)[C@@](O)(O2)C(=O)C(=O)N2CCCC[C@H]2C(=O)O[C@H]([C@H](C)C[C@@H]2CC[C@H](n3cc(COC(=O)NCCOCCOCCOCCC(=O)NCCOCCOCCOCCC(=O)NCCCCn4nc(-c5ccc6oc(N)nc6c5)c5c(N)ncnc54)nn3)[C@H](OC)C2)C/C(=N/OC(C)(C)C)[C@H](C)/C=C(\C)[C@@H](O)[C@@H](OC)C(=O)[C@H](C)C[C@H](C)/C=C/C=C/C=C/1C [Example 160] | > 1000 | 31.6 to 1000 | 10 to 1000 |
| CO[C@H]1C[C@@H]2CC[C@@H](C)[C@@](O)(O2)C(=O)C(=O)N2CCCC[C@H]2C(=O)O[C@H]([C@H](C)C[C@@H]2CC[C@H](n3cc(COC(=O)NCCOCCOCCOCCC(=O)NCCOCCOCCOCCC(=O)NCCCCn4nc(-c5cc6cc(O)ccc6[nH]5)c5c(N)ncnc54)nn3)[C@H](OC)C2)C/C(=N/OC(C)(C)C)[C@H](C)/C=C(\C)[C@@H](O)[C@@H](OC)C(=O)[C@H](C)C[C@H](C)/C=C/C=C/C=C/1C [Example 161] | > 1000 | > 1000 | > 1000 |
| CO[C@H]1C[C@@H]2CC[C@@H](C)[C@@](O)(O2)C(=O)C(=O)N2CCCC[C@H]2C(=O)O[C@H]([C@H](C)C[C@@H]2CC[C@H](n3cc(CCCC(=O)NCCOCCOCCOCCC(=O)NCCOCCOCCC(=O)NCCCCn4nc(-c5ccc6oc(N)nc6c5)c5c(N)ncnc54)nn3)[C@H](OC)C2)C[C@@H](OC)[C@H](C)/C=C(\C)[C@@H](O)[C@@H](OC)C(=O)[C@H](C)C[C@H](C)/C=C/C=C/C=C/1C [Example 162] | 31.6 to 1000 | > 1000 | 1 to 10 |
| CO[C@H]1C[C@@H]2CC[C@@H](C)[C@@](O)(O2)C(=O)C(=O)N2CCCC[C@H]2C(=O)O[C@H]([C@H](C)C[C@@H]2CC[C@H](n3cc(CCCC(=O)NCCOCCOCCOCCC(=O)NCCOCCOCCC(=O)NCCCCn4nc(-c5cc6cc(O)ccc6[nH]5)c5c(N)ncnc54)nn3)[C@H](OC)C2)C[C@@H](OC)[C@H](C)/C=C(\C)[C@@H](O)[C@@H](OC)C(=O)[C@H](C)C[C@H](C)/C=C/C=C/C=C/1C [Example 163] | > 1000 | > 1000 | 10 to 1000 |
| CO[C@H]1C[C@@H]2CC[C@@H](C)[C@@](O)(O2)C(=O)C(=O)N2CCCC[C@H]2C(=O)O[C@H]([C@H](C)C[C@@H]2CC[C@H](n3cc(CCCC(=O)NCCOCCOCCOCCC(=O)NCCOCCOCCOCCC(=O)NCCCCn4nc(-c5ccc6oc(N)nc6c5)c5c(N)ncnc54)nn3)[C@H](OC)C2)C[C@@H](OC)[C@H](C)/C=C(\C)[C@@H](O)[C@@H](OC)C(=O)[C@H](C)C[C@H](C)/C=C/C=C/C=C/1C [Example 164] | 3.16 to 31.6 | 31.6 to 1000 | < 1 |
| CCO[C@@H]1C[C@@H]([C@H](C)C[C@@H]2CC[C@H](n3cc(CCCC(=O)NCCOCCOCCOCCC(=O)NCCOCCOCCC(=O)NCCCCn4nc(-c5ccc6oc(N)nc6c5)c5c(N)ncnc54)nn3)[C@H](OC)C2)OC(=O)[C@@H]2CCCCN2C(=O)C(=O)[C@]2(O)O[C@@H](CC[C@H]2C)C[C@H](OC)/C(C)=C/C=C/C=C/[C@@H](C)C[C@@H](C)C(=O)[C@H](OC)[C@H](O)/C(C)=C/[C@H]1C [Example 165] | 31.6 to 1000 | > 1000 | 1 to 10 |
